Results published in patent US5332754A, “Naphthyloxazolidone derivatives” (Tanabe Seiyaku Co., Ltd., priority 1989, dated 1994).

Key:
[1] = target: T1, MAO-A (Rattus norvegicus, UniProt P21396); test: Inhibitory effect against MAO-A activity of cerebral mitochondrial fraction from rat (in vitro); type: biochemical; conditions: 10^-7 M test compound, serotonin substrate, read-out: Inhibitory rate (%) against MAO-A activity
T1 construct: mitochondorial fraction obtained from cerebral tissue of rats; from tissue; host or cells: rat cerebral tissue, mitochondrial fraction
T1 sequence (P21396 1-526): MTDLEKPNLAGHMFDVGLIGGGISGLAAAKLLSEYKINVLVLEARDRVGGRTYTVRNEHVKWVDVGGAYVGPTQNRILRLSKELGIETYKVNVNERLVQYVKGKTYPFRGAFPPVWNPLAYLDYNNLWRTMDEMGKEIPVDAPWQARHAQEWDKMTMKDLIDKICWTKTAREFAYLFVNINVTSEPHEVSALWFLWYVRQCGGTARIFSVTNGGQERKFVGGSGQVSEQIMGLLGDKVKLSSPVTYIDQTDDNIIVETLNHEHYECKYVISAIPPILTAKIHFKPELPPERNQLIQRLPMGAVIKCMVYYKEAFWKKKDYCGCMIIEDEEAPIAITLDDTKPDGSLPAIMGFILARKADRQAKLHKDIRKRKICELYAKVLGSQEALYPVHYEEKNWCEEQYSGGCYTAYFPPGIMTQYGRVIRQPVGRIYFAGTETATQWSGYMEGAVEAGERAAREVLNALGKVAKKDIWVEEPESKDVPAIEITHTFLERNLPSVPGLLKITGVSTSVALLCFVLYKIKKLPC
Protocol: Inhibitory effect against MAO-A activity of cerebral mitochondorian fraction from rat (in vitro)
(§1) A suspension (7mg protein/ml) of mitochondorial fraction obtained from cerebral tissue of rats in a conventional manner was used as a sample of enzyme, and serotonin was used as the substrate. of MAO-A. The MAO-A activity was estimated in terms of the amount of ammonia produced from serotonin by the enzymatic reaction.
Inhibitory rate of the test compounds (10^-7 M) against the MAO-A activity was calculated according to the following equation. [formula] NH3 (T): the amount of NH3 in test tube (addtion of test compound) NH3 (C): the amount of NH3 in control tube (no addition of test compound)

[2] = tested on: cerebral MAO-A; test: Inhibitory effect against cerebral MAO-A activity in mouse (oral administration); type: in vivo; conditions: 30 mg/kg oral, brain excised 45 minutes after administration, serotonin substrate
Protocol: as §1
(§2) Inhibitory effect against cerebral MAO-A and MAO-B activity in mouse.
(§3) A test compound (30 mg/kg) suspended in 0.5% aqueous sodium carboxymethylcellulose (CMC-Na) solution was administered orally to a group of 3 mice. The brain was excised 45 minutes after the administration. A control group was administered with the 0.5% aqueous CMC-Na solution alone.
(§4) The brain tissue was homogenized in 9 volumes of ice-cold distilled water and the homogenate was used as enzyme. MAO-A activity was estimated in the same manner as described in Experiment 1, whereas MAO-B activity was estimated in terms of the amount of benzaldehyde formed from benzylamine according to the method as described in "The Journal of Laboratory and Clinical Medicine, vol.

[3] = tested on: cerebral MAO-B; test: Inhibitory effect against cerebral MAO-B activity in mouse (oral administration); type: in vivo; conditions: 30 mg/kg oral, brain excised 45 minutes after administration, benzylamine substrate
Protocol: as §2, §3, §4
Inhibitory rate of the test compound against the MAO-B activity are calculated according to the following equation. [formula] BA(T): the amount of benzaldehyde in the medicated group BA(C): the amount of benzaldehyde in the non-medicated control group

[4] = tested on: mice; test: Acute oral toxicity in mice; type: in vivo, mouse; conditions: 2g/kg orally, 2 week-observation period
Excerpt: The naphthyloxazolidone derivative (I)or a pharmaceutically acceptable salt thereof has excellent reversible and selective MAO-A inhibitory activity. Accordingly, the compound (I) or a pharmaceutically acceptable salt thereof is useful as a therapeutic or prophylactic agent for depressive conditions such as depression, senile depression, abulia, axiety, insomnia, anorexia and the like in warm-blood animals including human beings. […] Moreover, the compound (I) or a pharmaceutically acceptable salt thereof is low in toxicity and have high safety as a pharmaceuticals. For example, when 3-(6-cyanoethoxy-2-naphthyl)-5-methoxymethyl-2-oxazolidone was administered orally to mice at a dose of 2g/kg, no mice died during 2 week-observation period.

Row | Structure (SMILES) | inhibition at 0.1 µM [1] [%] | Inhibitory rate (%) MAO-A [2] [%] | Inhibitory rate (%) MAO-B [3] [%] | mortality [4]
1 | COCC1CN(c2ccc3cc(OCC4CC4)ccc3c2)C(=O)O1 (centres unmarked) | 93.5 | 71.4 ± 4.3 | -4.5 ± 5.9 | 
2 | COCC1CN(c2ccc3ccccc3c2)C(=O)O1 (centres unmarked) [H, 5-methoxymethyl-3-(2-naphthyl)-2-oxazolidone] | 78.4 |  |  | 
3 | COCC1CN(c2ccc3cc(OCCC#N)ccc3c2)C(=O)O1 (centres unmarked) [O(CH2)2 CN, 3-(6-cyanoethoxy-2-naphthyl)-5-methoxymethyl-2-oxazolidone] | 98.1 | 109.2 ± 3.5 | -1.0 ± 2.3 | no mice died
4 | COCC1CN(c2ccc3cc(OCCCC#N)ccc3c2)C(=O)O1 (centres unmarked) [O(CH2)3 CN] | 95.5 | 99.8 ± 16.1 | -1.9 ± 4.8 | 
5 | COCC1CN(c2ccc3cc(OCCCO)ccc3c2)C(=O)O1 (centres unmarked) [O(CH2)3 OH] | 91.7 | 57.1 ± 4.3 | 1.0 ± 0.8 | 
6 | C=CCOc1ccc2cc(N3CC(COC)OC3=O)ccc2c1 (centres unmarked) [OCH2 CHCH2] | 96.8 |  |  | 
7 | COCC1CN(c2ccc3cc(OC(C)C)ccc3c2)C(=O)O1 (centres unmarked) [OCH(CH3)2] | 98.8 | 86.8 ± 5.4 | 3.6 ± 5.3 | 
8 | COCC1CN(c2ccc3cc(OC(C)=O)ccc3c2)C(=O)O1 (centres unmarked) [OCOCH3, 3-(6-acetyloxy-2-naphthyl)-5-methoxymethyl-2-oxazolidone] | 76.6 | 56.4 ± 7.4 | -3.1 ± 1.8 | 
9 | C#CCN(C)Cc1ccccc1 [pargyline, reference compound] |  | 42.0 ± 2.4 | 98.3 ± 5.9 | 
